The target of data set [1] is T1, human FXa (Homo sapiens, UniProt P00742).
T1 construct: purchased Hyphen BioMed
The data set is described as follows: Inhibition activity measurement against FXa (chromogenic substrate CS-11(22)). Format: biochemical. The note with it: human FXa; for IC50: chromogenic substrate, 37°C, read at 405 nm. How it is done:
The inhibition of FXa was measured using human FXa (Hyphen BioMed, city, Paris, FRA) and chromogenic substrate CS-11(22) (Hyphen BioMed, Paris, FRA) in 384-well microtiter plates at room temperature. […] 2 μL of FXa (56.8 nM), 16 μL of Tris buffer (adjust to pH 7.4 with HCl containing 0.3 M NaCl and 50 mM Tris) and 3 μL of test compound were added to the well, respectively. The negative control was composed of the same mixed solutions except replacing test compound with DMSO. […] After incubated at 37°C for 5 min, 8 μL of FXa substrate solution (3.5 mM) was added and then incubated at 37°C for 25 min. The FXa activity was measured at 405 nm using a SpectraMax M5 (Molecular Devices, Sunnyvale, CA, USA). The IC50 was calculated by the software named SPSS (IBM, North Castle, NY, USA) and the Probit function in it.

The subject of data set [2] is human plasma. The data set is described as follows: Prothrombin time (PT) assay. The data set is classed as biochemical. The note with it: concentration doubling prothrombin time in human plasma. How it is done: A commercially available automatic coagulometer (Steellex Science Instrument Co., Ltd., Beijing, China) was employed to measure PT. The clotting times were also measured using the instrument itself, in accordance with the manufacturer's instructions. Increasing concentrations of inhibitor or solvent were added to human plasma and incubated for 3 min at 37°C. Prothrombin time (PT) was determined by automatic coagulometer.

For data set [3], the system named is human FIIa (thrombin). Also noted: method as in PMID 16305517. The settings on record: read-out: IC50 against thrombin; cited from earlier work.

T1 sequence (P00742 235-488 limits assumed): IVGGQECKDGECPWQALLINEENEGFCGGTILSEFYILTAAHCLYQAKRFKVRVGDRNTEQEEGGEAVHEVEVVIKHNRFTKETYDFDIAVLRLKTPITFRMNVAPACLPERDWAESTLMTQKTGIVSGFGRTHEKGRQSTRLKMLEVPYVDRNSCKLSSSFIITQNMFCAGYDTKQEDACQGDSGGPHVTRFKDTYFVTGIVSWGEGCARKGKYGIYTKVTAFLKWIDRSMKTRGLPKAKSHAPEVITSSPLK
T1 sequence (P00742 41-179 partner limits assumed): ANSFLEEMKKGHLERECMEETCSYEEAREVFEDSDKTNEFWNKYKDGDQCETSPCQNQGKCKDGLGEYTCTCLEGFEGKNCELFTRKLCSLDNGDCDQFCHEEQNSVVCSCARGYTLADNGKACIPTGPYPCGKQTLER

`O=C(Nc1ccccc1C(=O)Nc1ccc(-n2ccccc2=O)cc1)c1ccc(Br)s1` [6a, 5-bromo-N-(2-((4-(2-oxopyridin-1(2H)-yl)phenyl)carb-amoyl)phenyl)thiophene-2-carboxamide] returned a melting point of more than 250 °C. Further, in data set [1], the Ki worked out at 20.5 nM and the IC50 is 28.7 nM. Further, in data set [2], the “2 × PT (Human)” value turned out to be 8.4 µM.
`O=C(Nc1ccc(Cl)cc1C(=O)Nc1ccc(-n2ccccc2=O)cc1)c1ccc(Cl)cc1Cl` [6k-a, 2,4-dichloro-N-(4-chloro-2-((4-(2-oxopyridin-1(2H)-yl)phenyl)carbamoyl)phenyl)benzamide]: the melting point was more than 250 °C. In data set [1], the Ki came to 58.6 nM and the IC50 came out at 82 nM. Also, the “2 × PT (Human)” value in data set [2] amounted to 16.9 µM.
Consider `O=C(NC[C@H]1CN(c2ccc(N3CCOCC3=O)cc2)C(=O)O1)c1ccc(Cl)s1` [rivaroxaban, reference compound], for which the “2 × PT (Human)” value in data set [2] turned out to be 0.2 µM. In data set [3], the 50% inhibitory concentration (IC50) is 6900 nM.
Consider `O=C(Nc1ccccc1C(=O)Nc1ccc(-n2ccccc2=O)cc1)c1ccc(F)c(F)c1` [6i, 3,4-difluoro-N-(2-((4-(2-oxopyridin-1(2H)-yl)phenyl)carbamoyl)phenyl)benzamide], for which the melting point was more than 250 °C. In data set [1], this molecule registered an IC50 of more than 1000 nM.
The corresponding values for `O=C(Nc1ccccc1C(=O)Nc1ccc(N2CCOCC2=O)cc1)c1ccc(Cl)nc1` [6h-d, 6-chloro-N-(2-((4-(3-oxomorpholino)phenyl)carbamo-yl)phenyl)nicotinamide] are more than 250 °C and more than 1000 nM.
The corresponding values for `COc1ccc(C(=O)Nc2ccc(Cl)cc2C(=O)Nc2ccc(-n3ccccc3=O)cc2)cc1` [6l-a, 5-chloro-2-(4-methoxybenzamido)-N-(4-(2-oxopyridin-1(2H)-yl)phenyl)benzamide] are more than 250 °C and more than 1000 nM.
Turning to `O=C(Nc1ccccc1C(=O)Nc1ccc(-n2ccccc2=O)cc1)c1ccc(Cl)cc1Cl` [6k, 2,4-dichloro-N-(2-((4-(2-oxopyridin-1(2H)-yl)phenyl)arbamoyl)phenyl)benzamide], the melting point is more than 250 °C. Further, in data set [1], the affinity, expressed as Ki, was 17 nM and the half-maximal inhibitory concentration (IC50) was 23.8 nM. Moreover, the “2 × PT (Human)” value in data set [2] amounted to 16.4 µM.
As to `COc1ccc(C(=O)Nc2ccc(Cl)cc2C(=O)Nc2ccc(N3CCOCC3=O)cc2)cc1` [6l-e, 5-chloro-2-(4-methoxybenzamido)-N-(4-(3-oxomorph-olino)phenyl)benzamide], the melting point was more than 250 °C. Also, the IC50 in data set [1] was 485 nM.
For `O=C(Nc1ccc(Cl)cc1C(=O)Nc1ccc(N2CCOCC2=O)cc1)c1ccc(Cl)cc1Cl` [6k-e, 2,4-dichloro-N-(4-chloro-2-((4-(3-oxomorpholino)phe-nyl)carbamoyl)phenyl)benzamide] the same measures were more than 250 °C and 259 nM.
As for `Cc1ccc(NC(=O)c2ccc(Br)s2)c(C(=O)Nc2ccc(-n3ccccc3=O)cc2)c1` [6a-b, 5-bromo-N-(4-methyl-2-((4-(2-oxopyridin-1(2H)-yl)ph-enyl)carbamoyl)phenyl)thiophene-2-carboxamide], the melting point is more than 250 °C. In data set [1], this molecule gave a Ki of 13.4 nM and an IC50 of 18.8 nM. The “2 × PT (Human)” value in data set [2] was determined as 4.2 µM.
`O=C(Nc1ccccc1C(=O)Nc1ccc(N2CCOCC2=O)cc1)c1ccc(Br)s1` [6a-d, 5-bromo-N-(2-((4-(3-oxomorpholino)phenyl)carbamo-yl)phenyl)thiophene-2-carboxamide] registered a melting point of more than 250 °C. In data set [1], this molecule showed an IC50 of 113 nM.
Regarding `Cc1ccc(NC(=O)c2ccc(Cl)cc2Cl)c(C(=O)Nc2ccc(-n3ccccc3=O)cc2)c1` [6k-b, 2,4-dichloro-N-(4-methyl-2-((4-(2-oxopyridin-1(2H)-yl)phenyl)carbamoyl)phenyl)benzamide], the melting point is more than 250 °C. In addition, in data set [1], the affinity, expressed as Ki, was 25.4 nM and the IC50 was 35.5 nM. For the same molecule, the “2 × PT (Human)” value in data set [2] stood at 11.3 µM.
`O=C(Nc1ccccc1C(=O)Nc1ccc(N2CCOCC2=O)cc1)c1ccc(Cl)cc1Cl` [6k-d, 2,4-dichloro-N-(2-((4-(3-oxomorpholino)phenyl)carba-moyl)phenyl)benzamide] registered a melting point of more than 250 °C. Moreover, in data set [1], it took 128 nM to reach half-maximal inhibition (IC50).
`O=C(Nc1ccc(Cl)cc1C(=O)Nc1ccc(N2CCOCC2=O)cc1)c1ccc(Br)s1` [6a-e, 5-bromo-N-(4-chloro-2-((4-(3-oxomorpholino)phenyl)carbamoyl)phenyl)thiophene-2-carboxamide] yielded a melting point of more than 250 °C. This molecule showed an IC50 in data set [1] of 125 nM. Also, the “2 × PT (Human)” value in data set [2] came to 3.8 µM.

Values taken from publication PMC5514901, “Synthesis and evaluation of anthranilamide-based derivatives as FXa inhibitors” (Oncotarget, 2017).
